Target: T1, Oxytocin receptor (Homo sapiens, UniProt P30559)
T1 sequence (P30559 whole entry): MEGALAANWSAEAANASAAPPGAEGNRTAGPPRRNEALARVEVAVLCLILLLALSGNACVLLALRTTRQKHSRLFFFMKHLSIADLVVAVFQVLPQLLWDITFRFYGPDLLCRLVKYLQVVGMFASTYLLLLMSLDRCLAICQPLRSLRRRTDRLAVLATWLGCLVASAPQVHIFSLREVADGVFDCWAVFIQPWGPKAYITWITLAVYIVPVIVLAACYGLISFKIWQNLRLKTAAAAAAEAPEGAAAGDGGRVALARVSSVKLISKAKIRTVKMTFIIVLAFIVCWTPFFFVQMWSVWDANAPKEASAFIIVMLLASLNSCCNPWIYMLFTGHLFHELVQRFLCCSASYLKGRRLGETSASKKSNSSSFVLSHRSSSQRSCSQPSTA
Assay: Inhibitory concentration required for antagonist activity against oxytocin receptor
Type: functional

| Structure (SMILES) | IC50 |
| --- | --- |
| CC(=O)CCCC(=O)NC1N=C(c2ccccc2)c2ccccc2N(CC(=O)N[C@@H](Cc2cccs2)C(N)=O)C1=O (some centres not stated) | 1 nM |
| CC(=O)CCCC(=O)NC1N=C(c2ccccc2)c2ccccc2N(CC(=O)N[C@@H](Cc2ccc(Cl)c(Cl)c2)C(N)=O)C1=O (some centres not stated) | 5 nM |
